Reference: the supplement of paper PMC10307832

What was measured:
Experiment in all cases: relative viability (nuclei count vs DMSO), 5 days (fraction); higher = more cells survive
Fedratinib = compound: Cc1cnc(Nc2ccc(OCCN3CCCC3)cc2)nc1Nc1cccc(S(=O)(=O)NC(C)(C)C)c1 [Fedratinib]
Method in brief: (§1)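 Vehicle-anchored 1536-well plates of lung cancer cell lines, held overnight at 37 °C, were pinned with five library-drug doses (not always all listed) spaced by √10. No medium change followed over the next 5 days, after which the cells were fixed, permeabilised and Hoechst-stained together and imaged at 4×. Nuclei were counted with MetaXpress, and viability is treated-well nuclei over vehicle-well nuclei, taken as a median across plates. Plates passed with control CV below 25% and at least one doubling.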

GW-2580 = compound: COC1=CC=C(C=C1)COC2=C(C=C(C=C2)CC3=CN=C(N=C3N)N)OC [GW-2580]
Method in brief: as §1

Fedratinib + Pemetrexed = compound: Cc1cnc(Nc2ccc(OCCN3CCCC3)cc2)nc1Nc1cccc(S(=O)(=O)NC(C)(C)C)c1 [Fedratinib] + Nc1nc2[nH]cc(CCc3ccc(C(=O)N[C@@H](CCC(=O)O)C(=O)O)cc3)c2c(=O)[nH]1 [Pemetrexed] (partner 0.2 µM)
Method in brief: (§2)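 Each reported value is a median over duplicate plates. It expresses relative viability: treated-well nuclei count divided by vehicle-well nuclei count. Lung cancer cell lines in 1536-well plates were dosed by pin tool a day after seeding, alone with one drug or with a fixed anchor-drug dose plus five library-drug doses (not always all listed) in √10 steps, and nuclei were counted after 5 days.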

GW-2580 + Alpelisib = compound: COC1=CC=C(C=C1)COC2=C(C=C(C=C2)CC3=CN=C(N=C3N)N)OC [GW-2580] + Cc1nc(NC(=O)N2CCC[C@H]2C(N)=O)sc1-c1ccnc(C(C)(C)C(F)(F)F)c1 [Alpelisib] (partner 2 µM)
Method in brief: as §2

Fedratinib + Dasatinib = compound: Cc1cnc(Nc2ccc(OCCN3CCCC3)cc2)nc1Nc1cccc(S(=O)(=O)NC(C)(C)C)c1 [Fedratinib] + Cc1nc(Nc2ncc(C(=O)Nc3c(C)cccc3Cl)s2)cc(N2CCN(CCO)CC2)n1 [Dasatinib] (partner 0.075 µM)
Method in brief: as §2

| Cell Line | relative viability (Fedratinib; 0.1 µM) | relative viability (Fedratinib; 0.3162 µM) | relative viability (Fedratinib; 1 µM) | relative viability (GW-2580; 0.08 µM) | relative viability (GW-2580; 0.8 µM) | relative viability (GW-2580; 2.53 µM) | relative viability (GW-2580; 8 µM) | relative viability (Fedratinib + Pemetrexed; first compound 0.1 µM) | relative viability (Fedratinib + Pemetrexed; first compound 0.3162 µM) | relative viability (Fedratinib + Pemetrexed; first compound 1 µM) | relative viability (GW-2580 + Alpelisib; first compound 0.08 µM) | relative viability (GW-2580 + Alpelisib; first compound 0.8 µM) | relative viability (GW-2580 + Alpelisib; first compound 2.53 µM) | relative viability (GW-2580 + Alpelisib; first compound 8 µM) | relative viability (Fedratinib + Dasatinib; first compound 0.1 µM) | relative viability (Fedratinib + Dasatinib; first compound 0.3162 µM) | relative viability (Fedratinib + Dasatinib; first compound 1 µM) |
| --- | --- | --- | --- | --- | --- | --- | --- | --- | --- | --- | --- | --- | --- | --- | --- | --- | --- |
| NCI-H1792 | 0.835 | 0.989 | 0.815 | 0.939 | 1.18 | 0.92 | 0.842 | 0.784 | 0.67 | 0.597 | 0.552 | 0.809 | 0.288 | 0.907 | 0.619 | 0.765 | 0.81 |
| NCI-H1793 | 0.884 | 0.886 | 0.619 | 0.95 | 1.05 | 0.711 | 0.852 | 0.81 | 0.847 | 0.724 | 0.659 | 0.679 | 0.634 | 0.775 | 0.4 | 0.348 | 0.362 |
| NCI-H1915 | 1.03 | 0.97 | 0.658 | 1.04 | 1.02 | 1.07 | 0.969 | 0.599 | 0.464 | 0.425 | 1.06 | 1.12 | 1.09 | 1.02 | 0.258 | 0.307 | 0.179 |
| NCI-H1944 | 0.965 | 1.01 | 0.909 | 1 | 0.999 | 0.972 | 0.886 | 0.665 | 0.643 | 0.624 | 0.826 | 0.94 | 0.828 | 0.759 | 0.21 | 0.235 | 0.196 |
| NCI-H1975 | 0.933 | 0.939 | 0.798 | 1.04 | 1.12 | 0.935 | 0.87 | 0.29 | 0.306 | 0.272 | 0.693 | 0.778 | 0.647 | 0.596 | 0.329 | 0.362 | 0.285 |
| NCI-H1993 | 0.822 | 1.03 | 0.835 | 0.86 | 1.16 | 0.764 | 1.1 | 0.523 | 0.513 | 0.589 | 0.684 | 0.677 |  | 0.704 | 0.591 | 0.545 | 0.62 |
| NCI-H2009 | 0.956 | 1.08 | 0.987 | 1.06 | 0.996 | 0.967 | 0.888 | 0.985 | 0.97 | 1.01 | 1.16 | 1.17 | 1.08 | 1.11 | 0.232 | 0.241 | 0.185 |
| NCI-H2023 | 1.02 | 0.962 | 0.754 | 1.12 | 1.07 | 0.933 | 1.06 | 0.272 | 0.254 | 0.158 | 0.611 | 0.625 | 0.513 | 0.604 | 0.614 | 0.476 | 0.394 |
| NCI-H2085 | 0.929 | 1.02 | 0.883 | 1.05 | 1.03 | 0.987 | 0.954 | 0.88 | 1.06 | 0.805 | 1.1 | 0.924 | 0.924 | 0.792 | 0.259 | 0.26 | 0.246 |
| NCI-H2087 | 1 | 0.99 | 0.856 | 1 | 1.08 | 0.942 | 0.933 | 0.739 | 0.651 | 0.731 | 1.23 | 0.999 | 1.02 | 0.613 | 0.803 | 0.536 | 0.648 |
| NCI-H2126 | 0.95 | 0.98 | 0.927 | 1.02 | 1.01 | 0.979 | 1.05 | 0.592 | 0.657 | 0.626 | 0.757 | 0.772 | 0.719 | 0.714 | 0.577 | 0.655 | 0.426 |
| NCI-H2170 | 1.05 | 1.01 | 0.9 | 1.02 | 1.02 | 0.948 | 0.972 | 0.284 | 0.27 | 0.253 | 0.892 | 0.842 | 0.741 | 0.902 | 0.566 | 0.416 | 0.339 |
| NCI-H2228 | 0.884 | 0.785 | 0.723 | 1.18 | 1.16 | 0.921 | 0.882 | 0.331 | 0.284 | 0.294 | 0.91 | 0.886 | 0.627 | 0.775 | 0.552 | 0.448 | 0.349 |
| NCI-H2347 | 1.04 | 0.932 | 0.938 | 0.989 | 1.1 | 0.88 | 1.07 | 0.335 | 0.419 | 0.433 | 1.02 | 0.968 | 0.915 | 1.05 | 0.311 | 0.275 | 0.435 |
| NCI-H2405 | 0.937 | 0.939 | 0.834 | 0.99 | 1.13 | 0.902 | 0.936 | 1.07 | 1.12 | 0.863 | 0.794 | 0.718 | 0.751 | 0.751 | 0.191 | 0.244 | 0.159 |
| NCI-H3122 | 1.05 | 1.02 | 0.892 | 1.03 | 1.09 | 1.06 | 1.01 | 0.186 | 0.189 | 0.197 | 0.85 | 0.878 | 0.671 | 0.758 | 0.747 | 0.738 | 0.816 |
| PC-3 [JPC-3] | 0.987 | 1.03 | 0.953 | 1.12 | 1.14 | 1.09 | 0.964 | 1.04 | 1.23 | 1.03 | 1.05 | 1.09 | 0.998 | 1.01 | 1.11 | 0.905 | 0.966 |
| PC-14 | 0.986 | 1.09 | 0.906 | 1.07 | 1.19 | 0.966 | 0.969 | 0.124 | 0.132 | 0.131 | 0.995 | 1.14 | 0.864 | 0.906 | 0.167 | 0.272 | 0.143 |
| RERF-LC-KJ | 1.03 | 1.04 | 0.917 | 1.08 | 1.15 | 0.921 | 0.977 | 0.454 | 0.463 | 0.502 | 0.771 | 0.803 | 0.732 | 0.793 | 0.683 | 0.768 | 0.655 |
| SK-LU-1 | 1.06 | 0.906 | 0.868 | 1.09 | 1.12 | 0.826 | 1.14 | 1 | 0.906 | 0.837 | 0.936 | 1.09 | 0.85 | 1.18 | 0.143 | 0.169 | 0.165 |
| SK-MES-1 | 0.977 | 1.02 | 0.911 | 1.1 | 1.08 | 0.96 | 0.984 | 1.01 | 0.947 | 0.811 | 1.15 | 0.907 | 0.94 | 0.885 | 0.285 | 0.427 | 0.272 |
| SW 1573 | 0.987 | 0.998 | 0.897 | 1.05 | 0.994 | 0.868 | 0.946 | 0.753 | 0.857 | 0.673 | 0.841 | 0.797 | 0.698 | 0.674 | 0.612 | 0.614 | 0.305 |
| UMC-11 | 0.914 | 0.894 | 0.67 | 1.05 | 1.11 | 0.923 | 1.2 | 0.756 | 0.66 | 0.665 | 0.959 | 1.07 | 1.11 | 1.21 | 0.53 | 0.412 | 0.453 |
